We go through 19 molecules from ChEMBL document CHEMBL5316269, “Rational Design of a New RXR Agonist Scaffold Enabling Single-Subtype Preference for RXRα, RXRβ, and RXRγ” (J Med Chem, 2023).

Each structure is given as a SMILES string.

Data set [1] has as its target T1, Retinoic acid receptor RXR-alpha (Homo sapiens, UniProt P19793).
T1 sequence (P19793 whole entry): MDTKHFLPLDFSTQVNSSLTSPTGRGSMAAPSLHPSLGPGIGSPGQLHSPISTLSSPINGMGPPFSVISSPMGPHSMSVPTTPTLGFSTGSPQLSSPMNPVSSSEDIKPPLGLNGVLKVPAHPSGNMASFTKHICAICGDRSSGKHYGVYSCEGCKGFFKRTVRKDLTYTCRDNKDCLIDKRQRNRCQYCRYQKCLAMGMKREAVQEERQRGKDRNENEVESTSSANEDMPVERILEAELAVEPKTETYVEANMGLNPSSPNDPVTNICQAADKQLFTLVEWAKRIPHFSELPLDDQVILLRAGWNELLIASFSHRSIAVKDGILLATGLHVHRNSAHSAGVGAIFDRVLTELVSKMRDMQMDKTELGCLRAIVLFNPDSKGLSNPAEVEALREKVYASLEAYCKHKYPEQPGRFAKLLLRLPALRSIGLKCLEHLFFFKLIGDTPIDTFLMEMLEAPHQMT
Put plainly: Agonist activity at human GAL4-fused RXRalpha LBD expressed in human HEK293T cells cotransfected with pFR-Luc and pRL-SV40 assessed as increase in luciferase activity incubated for 16 hrs by Dual-Glo luciferase assay. It is filed as cell-based.

In data set [2] the target is T2, Retinoic acid receptor RXR-gamma (Homo sapiens, UniProt P48443).
T2 sequence (P48443 whole entry): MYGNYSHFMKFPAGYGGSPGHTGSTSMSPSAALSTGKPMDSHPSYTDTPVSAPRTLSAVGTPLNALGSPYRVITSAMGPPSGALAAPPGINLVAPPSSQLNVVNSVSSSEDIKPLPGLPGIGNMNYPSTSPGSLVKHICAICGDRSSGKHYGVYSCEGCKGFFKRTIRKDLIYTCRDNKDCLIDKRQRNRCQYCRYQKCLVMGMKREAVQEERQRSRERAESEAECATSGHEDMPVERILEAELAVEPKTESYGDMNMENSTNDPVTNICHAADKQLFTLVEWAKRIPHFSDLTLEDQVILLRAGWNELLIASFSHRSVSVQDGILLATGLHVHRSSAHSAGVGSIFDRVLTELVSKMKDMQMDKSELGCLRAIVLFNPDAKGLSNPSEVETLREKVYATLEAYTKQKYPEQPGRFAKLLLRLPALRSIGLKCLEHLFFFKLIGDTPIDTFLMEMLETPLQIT
The data set can be described thus: Agonist activity at human GAL4-fused RXRgamma LBD expressed in human HEK293T cells cotransfected with pFR-Luc and pRL-SV40 assessed as increase in luciferase activity incubated for 16 hrs by Dual-Glo luciferase assay. It is filed as cell-based.

In data set [3] the target is T3, Retinoic acid receptor RXR-beta (Homo sapiens, UniProt P28702).
T3 sequence (P28702 whole entry): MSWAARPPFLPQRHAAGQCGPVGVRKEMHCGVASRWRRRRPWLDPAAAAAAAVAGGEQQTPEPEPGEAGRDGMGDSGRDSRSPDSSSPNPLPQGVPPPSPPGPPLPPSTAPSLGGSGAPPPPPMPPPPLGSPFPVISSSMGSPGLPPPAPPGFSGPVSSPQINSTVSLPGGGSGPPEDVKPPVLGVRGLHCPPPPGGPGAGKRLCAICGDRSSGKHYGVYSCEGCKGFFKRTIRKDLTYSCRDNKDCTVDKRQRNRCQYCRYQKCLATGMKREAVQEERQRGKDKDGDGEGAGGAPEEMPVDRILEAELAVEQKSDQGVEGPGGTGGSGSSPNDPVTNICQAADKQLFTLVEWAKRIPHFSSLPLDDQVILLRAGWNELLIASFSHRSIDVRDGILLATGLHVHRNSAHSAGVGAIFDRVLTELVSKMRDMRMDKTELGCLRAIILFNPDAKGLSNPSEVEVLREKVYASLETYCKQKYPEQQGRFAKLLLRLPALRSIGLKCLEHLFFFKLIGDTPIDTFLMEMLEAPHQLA
Put plainly: Agonist activity at human GAL4-fused RXRbeta LBD expressed in human HEK293T cells cotransfected with pFR-Luc and pRL-SV40 assessed as increase in luciferase activity incubated for 16 hrs by Dual-Glo luciferase assay. The data set is classed as cell-based.

In data set [4] the test system is HEK-293T. The data set can be described thus: Cytotoxicity in human HEK293T cells coexpressing GAL4-fused RXRgamma LBD, pFR-Luc and pRL-SV40 assessed as reduction in cell viability at > 10 uM incubated for 16 hrs by Dual-Glo luciferase assay. It is filed as toxicity, cell-based.
Data set [5] relates to HEK-293T. The data set can be described thus: Cytotoxicity in human HEK293T cells coexpressing GAL4-fused RXRbeta LBD, pFR-Luc and pRL-SV40 assessed as reduction in cell viability at > 10 uM incubated for 16 hrs by Dual-Glo luciferase assay. The data set is classed as toxicity, cell-based.
The test system of data set [6] is HEK-293T. Put plainly: Cytotoxicity in human HEK293T cells coexpressing GAL4-fused RXRalpha LBD, pFR-Luc and pRL-SV40 assessed as reduction in cell viability at > 10 uM incubated for 16 hrs by Dual-Glo luciferase assay. It is filed as toxicity, cell-based.
In data set [7] the target is T4, CAR (NR1I3) (Homo sapiens, UniProt Q14994).
T4 sequence (Q14994 whole entry): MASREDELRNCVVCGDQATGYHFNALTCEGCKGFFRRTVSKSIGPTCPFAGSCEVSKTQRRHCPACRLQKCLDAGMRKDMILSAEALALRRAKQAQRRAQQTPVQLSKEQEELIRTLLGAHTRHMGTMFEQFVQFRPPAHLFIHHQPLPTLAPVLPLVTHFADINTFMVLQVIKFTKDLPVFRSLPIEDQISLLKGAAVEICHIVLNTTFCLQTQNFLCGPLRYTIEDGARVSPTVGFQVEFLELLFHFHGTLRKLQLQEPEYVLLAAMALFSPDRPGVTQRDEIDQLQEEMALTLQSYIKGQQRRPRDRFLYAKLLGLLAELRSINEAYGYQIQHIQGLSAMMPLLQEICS
The data set can be described thus: Agonist activity at human GAL4-fused CAR LBD expressed in human HEK293T cells cotransfected with pFR-Luc and pRL-SV40 assessed as increase in luciferase activity at 1 uM incubated for 16 hrs by Dual-Glo luciferase assay relative to control. It is filed as cell-based. Conditions: HEK293T cells expressing GAL4-fused CAR LBD, read-out: Activity.

The target in data set [8] is T5, PXR (NR1I2) (Homo sapiens, UniProt O75469).
T5 sequence (O75469 whole entry): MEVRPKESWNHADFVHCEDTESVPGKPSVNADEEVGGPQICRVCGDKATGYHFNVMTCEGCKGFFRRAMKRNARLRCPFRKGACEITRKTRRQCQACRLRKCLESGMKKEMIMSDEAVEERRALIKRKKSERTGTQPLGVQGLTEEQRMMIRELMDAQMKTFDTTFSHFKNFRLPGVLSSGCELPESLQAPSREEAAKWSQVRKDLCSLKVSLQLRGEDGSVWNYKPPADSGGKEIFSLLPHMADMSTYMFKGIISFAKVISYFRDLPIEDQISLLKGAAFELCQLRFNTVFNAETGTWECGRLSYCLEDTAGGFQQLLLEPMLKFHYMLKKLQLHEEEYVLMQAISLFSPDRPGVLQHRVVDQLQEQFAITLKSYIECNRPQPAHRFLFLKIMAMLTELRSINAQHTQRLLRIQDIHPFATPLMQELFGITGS
Put plainly: Agonist activity at human GAL4-fused PXR LBD expressed in human HEK293T cells cotransfected with pFR-Luc and pRL-SV40 assessed as increase in luciferase activity at 1 uM incubated for 16 hrs by Dual-Glo luciferase assay relative to control. The data set is classed as cell-based. Conditions: HEK293T cells expressing GAL4-fused PXR LBD, read-out: Activity.

Data set [9] has as its target T1, Retinoic acid receptor RXR-alpha. The data set can be described thus: Binding affinity to human RXRalpha LBD and measured for 180 sec by ITC analysis.
Data set [10] concerns the target T4, CAR (NR1I3). The data set can be described thus: Agonist activity at human GAL4-fused CAR LBD expressed in human HEK293T cells cotransfected with pFR-Luc and pRL-SV40 assessed as increase in luciferase activity at 30 uM incubated for 16 hrs by Dual-Glo luciferase assay relative to control. The data set is classed as cell-based. The conditions noted are these: HEK293T cells expressing GAL4-fused CAR LBD, read-out: Activity.

Data set [11] deals with T5, PXR (NR1I2). Put plainly: Agonist activity at human GAL4-fused PXR LBD expressed in human HEK293T cells cotransfected with pFR-Luc and pRL-SV40 assessed as increase in luciferase activity at 30 uM incubated for 16 hrs by Dual-Glo luciferase assay relative to control. The data set is classed as cell-based. The conditions noted are these: HEK293T cells expressing GAL4-fused PXR LBD, read-out: Activity.

Data set [12] concerns the target T2, Retinoic acid receptor RXR-gamma. The data set can be described thus: Binding affinity to human RXRgamma LBD and measured for 180 sec by ITC analysis. On the technique in general: Isothermal titration calorimetry measures the heat released or taken up as one component is titrated into another.

The EC50 is the concentration at which the effect is half-maximal. `O=C(O)c1cccc(COc2cccc3c2CCC3)c1`: the EC50 in data set [1] is 7 µM.

Take `Cc1ccc(OCc2ccc(C(=O)O)cc2)c2c1CCC2`: in data set [2], the EC50 turned out to be 5 µM.

On to `Cc1ccc(OCc2ccc(C(=O)O)c(F)c2)c2c1CCC2`, for which the EC50 in [3] came to 2.9 µM; in data set [2], 11 µM.

Regarding `Cc1ccc(OCc2ccc(CCC(=O)O)cc2)c2c1CCC2`, the EC50 in data set [3] is 1.1 µM.

On to `Cc1ccc(COc2ccc(C)c3c2CCC3)cc1CC(=O)O`, for which the Activity result in the data set on HEK-293T [4], in the data set with HEK-293T [5] and in the data set with HEK-293T [6] was “Toxic” throughout.

In the case of `Cc1ccc(COc2cccc3c2CCC3)cc1CC(=O)O`, the Activity result in the data set with HEK-293T [4], in the data set on HEK-293T [5] and in the data set on HEK-293T [6] was “Toxic” in each case.

As for `Cc1cc(COc2cccc3c2CCC3)ccc1CC(=O)O`, the EC50 in [3] and in data set [1] was 43 µM in each case.

As to `O=C(O)c1ccc(COc2cccc3c2CCC3)cc1`, the values for the EC50 in [3] and in [1] were 1.5 µM and 1.2 µM, respectively.

Take `Cc1ccc(OCc2ccc(CC(=O)O)cc2)c2c1CCC2`: the EC50 came out at 2.5 µM in [3] and 2.4 µM in [1].

As to `Cc1cc(COc2cccc3c2CCC3)ccc1C(=O)O`, in [1], the EC50 amounted to 23 µM.

As to `O=C(O)CCc1ccc(COc2cccc3c2CCC3)cc1`, the EC50 in data set [2] is 2.6 µM; in data set [1], 0.6 µM.

One may read the Kd as the constant that tells how readily two partners part at equilibrium. High values mean weaker binding, low ones tighter binding. Turning to `Cc1cc(COc2ccc(C)c3c2CCC3)ccc1CCC(=O)O`, the activity at 16 h, 1 µM at CAR (NR1I3) [7] was 6%; on PXR (NR1I2) [8], 12%. This molecule had a Kd in data set [9] of 0.2 µM. Besides, the EC50 in data set [1] came out at 0.36 µM.

For the molecule `CN(Cc1ccc(C(=O)O)cc1)c1cccc2c1CCC2`, the results for the EC50 in data set [2] and in [1] were 14 µM and 4.1 µM, respectively.

For `O=C(O)c1ccc(COc2cccc3c2CCC3)cc1F`, in [1], the EC50 turned out to be 0.8 µM.

As to `O=C(O)c1ccc(CNc2cccc3c2CCC3)cc1`, the values for the EC50 in [2] and in data set [1] were 13 µM and 3.1 µM, respectively.

As to `O=C(O)CCc1ccc(COc2cccc3c2CCC3)cc1F`, the EC50 in [3] was determined as 2.8 µM; in data set [2], 11 µM; in [1] it was 2.2 µM.

Consider `Cc1ccc(OCc2ccc(CCC(=O)O)c(Cl)c2)c2c1CCC2`, for which the EC50 is 8 µM in [3], 10.6 µM in data set [2] and 7 µM in [1].

Regarding `Cc1ccc(OCc2ccc(CCC(=O)O)c(F)c2)c2c1CCC2`, the activity at 16 h, 30 µM at CAR (NR1I3) [10] stood at 9%; at PXR (NR1I2) [11], 15%. The Kd in data set [12] amounted to 6 µM. For the same molecule, the EC50 in data set [2] came out at 14 µM.

Turning to `CC1=C2[C@H](/C=C(\C)C(=O)O)CC[C@@H](C)[C@H]2CC1` [VALERENIC ACID], the EC50 in [3] is 5 µM.
